Reference: patent US20120045505A1, “FIXED DOSE DRUG COMBINATION FORMULATIONS” (Dr. Reddy's Laboratories, Inc., priority 2004, published 2012)

What was measured:
[1] = In vitro dissolution of capsules, USP Type 1 (Basket) apparatus, 900 mL medium, 100 rpm; assay type: physicochemical
Description: Dissolution profiles for drugs in capsules prepared above are determined in various media using the USP procedure and the following conditions: Type 1 (Basket) apparatus; 900 mL medium; and 100 rpm rotation. Values in the following tables are cumulative percentages of the specified drug that dissolves in the specified times. […]

[2] = Storage stability of capsules in closed HDPE bottles at 40° C. and 75% relative humidity for 6 months: drug content and drug-related impurities; assay type: physicochemical
Description: Capsules prepared above are stored in closed high-density polyethylene (HDPE) bottles at 40° C. and 75% relative humidity for 6 months, and are analyzed for drug content and the levels of drug-related impurity formation.
Capsules prepared above are stored in closed HDPE bottles at 40° C. and 75% relative humidity for 6 months, and are analyzed for drug content and the levels of drug-related impurities.

[3] = Example 4 capsule, 0.1N HCl, 30 Minutes
[4] = Example 4 capsule, 0.1N HCl, 60 Minutes
[5] = Example 4 capsule, pH 2.1 SGF, 30 Minutes
[6] = Example 4 capsule, pH 2.1 SGF, 60 Minutes
[7] = Example 4 capsule, pH 4.5 Acetate buffer USP, 30 Minutes
[8] = Example 4 capsule, pH 4.5 Acetate buffer USP, 60 Minutes
[9] = Example 4 capsule, pH 6.8 Phosphate buffer USP, 30 Minutes
[10] = Example 4 capsule, pH 6.8 Phosphate buffer USP, 60 Minutes
[11] = Example 4 capsule, 6 Months at 40° C. and 75% relative humidity, closed HDPE bottles
[12] = Example 4 capsule, 6 Months, 40° C./75% RH
[13] = Example 3 capsule, 0.1N HCl, 30 Minutes
[14] = Example 3 capsule, 0.1N HCl, 60 Minutes
[15] = Example 3 capsule, pH 2.1 SGF, 30 Minutes
[16] = Example 3 capsule, pH 2.1 SGF, 60 Minutes
[17] = Example 3 capsule, pH 4.5 Acetate buffer USP, 30 Minutes
[18] = Example 3 capsule, pH 4.5 Acetate buffer USP, 60 Minutes
[19] = Example 3 capsule, 6 Months at 40° C. and 75% relative humidity, closed HDPE bottles
[20] = Example 3 capsule, 6 Months, 40° C./75% RH
[21] = Example 4 capsule, 6 Months, 40° C./75% RH, capsule containing hydrochlorothiazide
[22] = Example 4 capsule, Initial, capsule containing hydrochlorothiazide

SMILES | cumulative percentage of drug dissolved [1, 3] | cumulative percentage of drug dissolved [1, 4] | cumulative percentage of drug dissolved [1, 5] | cumulative percentage of drug dissolved [1, 6] | cumulative percentage of drug dissolved [1, 7] | cumulative percentage of drug dissolved [1, 8] | cumulative percentage of drug dissolved [1, 9] | cumulative percentage of drug dissolved [1, 10] | Assay (drug content) [2, 11] | Assay (drug content) ([2]; Example 4 capsule, Initial) | cumulative percentage of drug dissolved [1, 13] | cumulative percentage of drug dissolved [1, 14] | cumulative percentage of drug dissolved [1, 15] | cumulative percentage of drug dissolved [1, 16] | cumulative percentage of drug dissolved [1, 17] | cumulative percentage of drug dissolved [1, 18] | Assay (drug content) [2, 19] | Assay (drug content) ([2]; Example 3 capsule, Initial) | also measured
NS(=O)(=O)c1cc2c(cc1Cl)NCNS2(=O)=O [Hydrochlorothiazide] | 100% | 100% | 88% | 98% | 91% | 97% | 82% | 85% | 99.3 % of label content | 99.5 % of label content | – | – | – | – | – | – | – | – | Impurity: CTZ [2, 12]: 0.04 % of label content; Impurity: DSA [2, 12]: 0.07 % of label content; Impurity: CTZ ([2]; Example 4 capsule, Initial): 0.04 % of label content; Impurity: DSA ([2]; Example 4 capsule, Initial): 0.04 % of label content
CC(=O)Oc1ccccc1C(=O)O [Aspirin] | 96% | 98% | 99% | 100% | 88% | 89% | – | – | 101.3 % of label content | 101.2 % of label content | 96% | 98% | 99% | 100% | 88% | 89% | 101.5 % of label content | 100.3 % of label content | cumulative percentage of drug dissolved ([1]; Example 3 capsule, 0.01N HCl, 30 Minutes): 87%; cumulative percentage of drug dissolved ([1]; Example 3 capsule, 0.01N HCl, 60 Minutes): 89%; cumulative percentage of drug dissolved ([1]; Example 4 capsule, 0.01N HCl, 30 Minutes): 87%; cumulative percentage of drug dissolved ([1]; Example 4 capsule, 0.01N HCl, 60 Minutes): 89%; Impurity: Salicylic acid [2, 20]: 0.68 % of label content; Impurity: Salicylic acid ([2]; Example 3 capsule, Initial): 0.17 % of label content; Impurity: Salicylic acid [2, 21]: 0.31 % of label content; Impurity: Salicylic acid [2, 22]: 0.13 % of label content
CC(C)NCC(O)COc1ccc(CC(N)=O)cc1 (stereo not drawn) [Atenolol] | – | – | – | – | – | – | – | – | – | – | – | – | – | – | – | – | 98.7 % of label content | 100.3 % of label content | –
NCCCC[C@H](N[C@@H](CCc1ccccc1)C(=O)O)C(=O)N1CCC[C@H]1C(=O)O [Lisinopril] | 100% | 100% | 95% | 98% | 100% | 102% | 94% | 95% | 99.0 % of label content | 97.8 % of label content | 97% | 96% | 102% | 105% | 97% | 96% | 98.7 % of label content | 98.5 % of label content | cumulative percentage of drug dissolved ([1]; Example 3 capsule, pH 6.5 SIF, 30 Minutes): 92%; cumulative percentage of drug dissolved ([1]; Example 3 capsule, pH 6.5 SIF, 60 Minutes): 97%; cumulative percentage of drug dissolved ([1]; Example 3 capsule, pH 6.8 Phosphate buffer USP, 30 Minutes): 96%; cumulative percentage of drug dissolved ([1]; Example 3 capsule, pH 6.8 Phosphate buffer USP, 60 Minutes): 96%; Impurity: RSS isomer [2, 20]: 0.12 % of label content; Impurity: SSS DKP [2, 20]: 0.009 % of label content; Impurity: RSS isomer ([2]; Example 3 capsule, Initial): 0.09 % of label content; Impurity: RSS isomer [2, 21]: 0.09 % of label content; Impurity: SSS DKP [2, 21]: 0.33 % of label content; Impurity: RSS isomer [2, 22]: 0.09 % of label content; Impurity: SSS DKP [2, 22]: 0.05 % of label content
